Measurements as given in publication PMC8962522, “Direct interaction of TrkA/CD44v3 is essential for NGF-promoted aggressiveness of breast cancer cells” (Journal of Experimental & Clinical Cancer Research : CR, 2022).
Entries after “also recorded” stand apart in the source; their conditions may differ.

Assays:
MDA-MB-231 cells [1] = assay: Scratch/wound migration assay, MDA-MB-231; type: cell-based; conditions: peptide 50 ng/mL 30 min before NGF 100 ng/ml; 24 h, 0.1% FBS; siCD44v3 24 h after treatment
Procedure: Scratch/wound migration assays were performed using inserts (Ibidi, Germany). MDA-MB-231 cells (4 × 10^5 cells/mL) were seeded onto each side of the chamber and incubated overnight at 37 °C until they reached the subconfluent stage. Next, the inserts were removed, and the cells were rinsed and starved (1 mL of 0.1% FBS medium for 1 h). Images of the initial wound were obtained using an inverted microscope, and the cells were incubated with or without the peptide (scramble or P4; 50 ng/mL) for 30 min and stimulated with NGF (100 ng/ml). After 24 h, images (2/wound) were obtained of the same place on the wound as those initially taken. The distance between the 2 migration fronts was measured using ImageJ software.
(§1) Fig. 4 CD44v3 mimetic peptide 4 inhibits MDA-MB-231 breast cancer cell growth and migration/invasion. Clonogenic MDA-MB-231 cell growth was measured after 10 days in the presence of a scramble peptide (SP) or CD44v3 mimetic peptide (P4) (A, B). The elongation factor (length-to-width ratio) was assessed after 10 days in the presence or absence of NGF (C, D, E). Migration assays were performed using Ibidi devices 24 h after treatment (H, I). Invasion through collagen 1 was measured by the Transwell assay 16 h after treatment (J, K). Statistical analyses were performed using one-way ANOVA followed by Bonferroni’s posttest. […]

[2] = tested on: TrkA/CD44v3 complex in COS-7 cells expressing TrkA and CD44v3; assay: PLA TrkA/CD44v3 complex formation in COS-7 cells; type: cell-based, African green monkey (COS-7 cells); conditions: COS-7 expressing TrkA and CD44v3; NGF 100 ng/ml, 0, 5 and 30 min; 30 fields per condition, three experiments
Procedure: Cells (10,000 cells per well) were grown on acid-washed eight-well glass slides (Thermo Scientific) in the appropriate medium supplemented with 10% FBS for 24 h. After NGF treatment, paraformaldehyde (PAF)-fixed cells were incubated with 4% bovine serum albumin (BSA) or 5% FBS (for 1 h at 20 °C), followed by overnight incubation with primary antibodies (rabbit anti-TrkA or rabbit anti-IgG + mouse anti-pan-CD44; mouse anti-CD44v3; mouse anti-CD44v6; mouse anti-IgG2a; mouse anti-IgG2b; or mouse anti-IgG1). PLA was performed following the manufacturer’s instructions in the assay kit (Duolink PLA; Sigma–Aldrich). To obtain the correct representation of the PLA signal for each condition, 30 fields per condition were observed using a fluorescence microscope (Eclipse TiU; Nikon, Japan). The PLA signals (red dots) were automatically quantified using ImageJ software (with an in-house-developed plug-in). After PLA, statistical analyses were performed using GraphPad Prism software to determine the mean dot intensity in the cells.
Fig. 1 The C-terminal region of CD44 variant 3 binds to TrkA. A Schematic representation of the CD44 gene and protein structure. Alternative splicing leads to the expression of CD44 variants, thus the insertion of exon 8 leads to the expression of a CD44 protein containing variant 3 (CD44v3) and the insertion of exon 11 leads to the expression of a CD44 containing variant 6 (CD44v6) (B) TrkA/CD44v3 complex formation in COS-7 cells expressing TrkA and CD44v3 was detected by the proximity ligation assay (PLA), which was performed 0, 5 and 30 min after the initiation of NGF (100 ng/ml) treatment. The images represent signals detected by PLA. Quantification of the red spots was performed by ImageJ software (30 randomly chosen fields per condition of three different experiments). Statistical analyses were performed using one-way ANOVA followed by Bonferroni’s posttest. Error bars represent the standard error of the mean (S.E.M.); *** p < 0.001. ns, nonsignificant. C NGF and/or TrkA binding to CD44v3 was measured by microscale thermophoresis (MST). MST experiments were performed on whole cell extracts of COS-7 cells expressing CD44v3. […]
Fig. 2 The C-terminal region of CD44v3 and the His112 residue of TrkA are involved in the CD44v3/TrkA interaction. TrkA/CD44v3 complex association was detected by the proximity ligation assay (PLA) in wild-type TrkA- or TrkA_H112A- and CD44v3-expressing COS-7 cells. […] Representative images of signals detected by PLA (A) and their quantification (B). […] TrkA/CD44v3 complex association was detected by PLA in wild-type TrkA and CD44v3 wild type or CD44v3 deleted mutant Δ3 or Δ4 expressing COS-7 (D, E). […] Quantification of PLA was performed using ImageJ software (30 fields per condition of three different experiments). […]

MDA-MB-231 cells [3] = assay: Transwell invasion assay through collagen I, MDA-MB-231; type: cell-based; conditions: peptide 50 ng/mL for 30 min, NGF in lower chamber, 24 h (legend: 16 h)
Procedure: Transwell invasion assays were performed to assess cancer cell invasion in a Transwell chamber containing a collagen I-coated membrane (12-wells with inserts and […] pore size membranes; Corning, Life Sciences). A total of 1 × 10^6 starved cells (0.1% in SVF medium) were plated in the top chamber and incubated for 10 min before treatment with a peptide (50 ng/mL for 30 min); NGF was added to the lower chamber. After 24 h, the cells were fixed with methanol for 10 min and stained with Hoechst 33258 (1 mg/mL) for 30 min, and the cells that invaded the lower surface through the pores of the inserts were automatically counted under an inverted microscope with ImageJ software (with an in-house-developed plug-in).
as §1

NGF: recombinant human β-NGF (Alomone Labs, Israel)
effect on migration (wound closure) of MDA-MB-231 cells (MDA-MB-231 cells [1]): the migration of MDA-MB-231 cells was increased, as indicated by complete wound closure 24 h after treatment
effect on TrkA/CD44v3 complex formation (PLA) in COS-7 cells [2]: increased the PLA-detected TrkA/CD44v3 signal in the plasma membrane of COS-7 cells following NGF stimulation; also recorded: transient and decreased 30 min after NGF stimulation
effect on invasion of MDA-MB-231 cells (MDA-MB-231 cells [3]): more NGF-treated cells than untreated cells invaded the collagen substrate

IDDDEDFISST [Peptide 4, mimetic peptide 4 (…) corresponding to the C-terminal region of CD44v3]
effect on migration (wound closure) of MDA-MB-231 cells (MDA-MB-231 cells [1]): completely blocked NGF-dependent wound closure
effect on TrkA/CD44v3 complex formation (PLA) in COS-7 cells [2]: could decrease NGF-induced TrkA/CD44v3 complex formation in COS-7 cells
effect on invasion of MDA-MB-231 cells (MDA-MB-231 cells [3]): a decrease in both basal levels and NGF-induced invasion was observed
